According to the supplement of paper PMC10307832:

What was measured:
Test in all cases: relative viability (nuclei count vs DMSO), 5 days (fraction); higher = more cells survive
Avagacestat + Linsitinib = compound: NC(=O)[C@@H](CCC(F)(F)F)N(Cc1ccc(-c2ncon2)cc1F)S(=O)(=O)c1ccc(Cl)cc1 [Avagacestat] + C[C@]1(O)C[C@@H](c2nc(-c3ccc4ccc(-c5ccccc5)nc4c3)c3c(N)nccn32)C1 [Linsitinib] (partner 1 µM)
How it was run: (§1)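 Each reported value is a median over duplicate plates. It expresses relative viability: treated-well nuclei count divided by vehicle-well nuclei count. Lung cancer cell lines in 1536-well plates were dosed by pin tool a day after seeding, alone with one drug or with a fixed anchor-drug dose plus five library-drug doses (not always all listed) in √10 steps, and nuclei were counted after 5 days.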

Avagacestat + Pictilisib = compound: NC(=O)[C@@H](CCC(F)(F)F)N(Cc1ccc(-c2ncon2)cc1F)S(=O)(=O)c1ccc(Cl)cc1 [Avagacestat] + CS(=O)(=O)N1CCN(Cc2cc3nc(-c4cccc5[nH]ncc45)nc(N4CCOCC4)c3s2)CC1 [Pictilisib] (partner 1 µM)
How it was run: as §1

Avagacestat + Alpelisib = compound: NC(=O)[C@@H](CCC(F)(F)F)N(Cc1ccc(-c2ncon2)cc1F)S(=O)(=O)c1ccc(Cl)cc1 [Avagacestat] + Cc1nc(NC(=O)N2CCC[C@H]2C(N)=O)sc1-c1ccnc(C(C)(C)C(F)(F)F)c1 [Alpelisib] (partner 2 µM)
How it was run: as §1

Avagacestat + Decitabine = compound: NC(=O)[C@@H](CCC(F)(F)F)N(Cc1ccc(-c2ncon2)cc1F)S(=O)(=O)c1ccc(Cl)cc1 [Avagacestat] + Nc1ncn([C@H]2C[C@H](O)[C@@H](CO)O2)c(=O)n1 [Decitabine] (partner 2 µM)
How it was run: as §1

| Cell Line | relative viability (Avagacestat + Linsitinib; first compound 0.08 µM) | relative viability (Avagacestat + Linsitinib; first compound 0.253 µM) | relative viability (Avagacestat + Linsitinib; first compound 0.8 µM) | relative viability (Avagacestat + Linsitinib; first compound 2.53 µM) | relative viability (Avagacestat + Linsitinib; first compound 8 µM) | relative viability (Avagacestat + Pictilisib; first compound 0.08 µM) | relative viability (Avagacestat + Pictilisib; first compound 0.253 µM) | relative viability (Avagacestat + Pictilisib; first compound 0.8 µM) | relative viability (Avagacestat + Pictilisib; first compound 2.53 µM) | relative viability (Avagacestat + Pictilisib; first compound 8 µM) | relative viability (Avagacestat + Alpelisib; first compound 0.08 µM) | relative viability (Avagacestat + Alpelisib; first compound 0.253 µM) | relative viability (Avagacestat + Alpelisib; first compound 0.8 µM) | relative viability (Avagacestat + Alpelisib; first compound 2.53 µM) | relative viability (Avagacestat + Alpelisib; first compound 8 µM) | relative viability (Avagacestat + Decitabine; first compound 0.08 µM) | relative viability (Avagacestat + Decitabine; first compound 0.253 µM) | relative viability (Avagacestat + Decitabine; first compound 0.8 µM) | relative viability (Avagacestat + Decitabine; first compound 2.53 µM) | relative viability (Avagacestat + Decitabine; first compound 8 µM) |
| --- | --- | --- | --- | --- | --- | --- | --- | --- | --- | --- | --- | --- | --- | --- | --- | --- | --- | --- | --- | --- |
| HCC-44 | 0.703 | 0.709 | 0.681 | 0.504 | 0.598 | 0.548 | 0.782 | 0.588 | 0.484 | 0.569 | 0.939 | 0.746 | 0.8 | 0.667 | 0.645 | 0.991 | 0.944 | 0.985 | 0.968 | 0.986 |
| EKVX | 1.22 | 0.996 | 1.25 | 0.847 | 0.703 | 0.443 | 0.528 | 0.523 | 0.393 | 0.435 | 0.974 | 0.971 | 0.878 | 0.832 | 0.811 | 0.391 | 0.299 | 0.378 | 0.354 | 0.36 |
| NCI-H522 | – | – | – | – | – | – | – | – | – | – | – | – | – | – | – | 0.782 | 0.674 | 0.681 | 0.606 | 0.614 |
| NCI-H1792 | 0.648 | 0.424 | 0.692 | 0.383 | 0.368 | 0.252 | 0.315 | 0.264 | 0.24 | 0.21 | 0.871 | 0.618 | 0.774 | 0.541 | 0.562 | 0.722 | 0.561 | 0.618 | 0.487 | 0.426 |
| NCI-H661 | 0.736 | 0.713 | 0.634 | – | 0.566 | 0.435 | 0.38 | 0.487 | – | 0.471 | 0.803 | 0.664 | 1.08 | – | 0.589 | 0.585 | 0.568 | 0.608 | 0.56 | 0.558 |
| LCLC-103H | 1.08 | 1.01 | 1.24 | 1.01 | 0.877 | 0.629 | 0.533 | 0.572 | 0.58 | 0.509 | 0.983 | 0.939 | 1.01 | 0.842 | 0.753 | 0.753 | 0.76 | 0.776 | 0.561 | 0.583 |
| NCI-H1793 | 1.01 | 0.926 | 1.02 | 0.913 | 0.657 | 0.381 | 0.325 | 0.326 | 0.413 | 0.27 | 0.967 | 0.777 | 0.822 | 0.769 | 0.672 | 0.504 | 0.532 | 0.508 | 0.472 | 0.496 |
| HOP-62 | 1.06 | 0.852 | 0.992 | 0.919 | 0.94 | 0.825 | 0.778 | 0.525 | 0.573 | 0.857 | 1 | 0.908 | 0.971 | 0.94 | 0.889 | 0.211 | 0.229 | 0.194 | 0.221 | 0.218 |
| HCC-827 | 1.03 | 1.02 | 0.931 | 0.995 | 1.08 | 1.13 | 1.08 | 0.797 | 0.941 | 0.897 | 1.04 | 0.984 | 1.05 | 0.874 | 0.972 | 0.328 | 0.313 | 0.327 | 0.329 | 0.296 |
